Active and inactive are the calls of the source.
What was measured:
[1] = target: DNA dC->dU-editing enzyme APOBEC-3G (Homo sapiens, UniProt Q9HC16); assay type: functional;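 further: Dose-response counterscreen measuring inhibition of APOBEC3G DNA deaminase activity, run while confirming APOBEC3A inhibitors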
[2] = NIH3T3 cell viability loss – ATP luminescence, mouse fibroblasts, counter-screen, dose response (AID 2010); assay type: functional, cell-based;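 further: cells exposed to compound for about 90 hours before reading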
Galanin receptor type 3 = Galanin receptor type 3 (Homo sapiens, UniProt O60755); assay: Fluorescence-based cell-based primary high throughput dose response assay to identify antagonists of the Galanin Receptor 3 (GalR3).; assay type: functional
Sequence of Galanin receptor type 3 (O60755 whole entry): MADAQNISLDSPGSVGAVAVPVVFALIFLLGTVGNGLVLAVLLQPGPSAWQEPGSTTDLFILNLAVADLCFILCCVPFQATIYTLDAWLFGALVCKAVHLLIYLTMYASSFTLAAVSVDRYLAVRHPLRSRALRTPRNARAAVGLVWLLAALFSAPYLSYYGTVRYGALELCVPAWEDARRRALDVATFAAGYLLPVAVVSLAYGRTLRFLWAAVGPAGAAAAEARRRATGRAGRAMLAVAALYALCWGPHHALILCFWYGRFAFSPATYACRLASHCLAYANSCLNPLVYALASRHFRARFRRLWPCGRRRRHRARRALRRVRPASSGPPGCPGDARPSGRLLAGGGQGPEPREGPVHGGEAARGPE

cells [3] = assay type: functional, cell-based; conditions: HEK-CNG
[4] = Trypanosoma cruzi growth suppression in host cells – NIH3T3 host cells, beta-gal luminescence, confirmation (AID 2044); assay type: functional, cell-based;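 further: intracellular parasites grown in NIH/3T3 mouse fibroblasts as host cells; luminescent beta-galactosidase reporter signal from transgenic T. cruzi replicating inside host cells; inhibitors lower the luminescence signal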
[5] = target: DNA dC->dU-editing enzyme APOBEC-3A (Homo sapiens, UniProt P31941); assay: Dose Response confirmation of small molecule APOBEC3A DNA Deaminase Inhibitors via a fluorescence-based single-stranded DNA deaminase assay. [Related pubchem assays (depositor defined):AID493011, AID493024]; assay type: functional
Sequence of DNA dC->dU-editing enzyme APOBEC-3A (P31941 whole entry): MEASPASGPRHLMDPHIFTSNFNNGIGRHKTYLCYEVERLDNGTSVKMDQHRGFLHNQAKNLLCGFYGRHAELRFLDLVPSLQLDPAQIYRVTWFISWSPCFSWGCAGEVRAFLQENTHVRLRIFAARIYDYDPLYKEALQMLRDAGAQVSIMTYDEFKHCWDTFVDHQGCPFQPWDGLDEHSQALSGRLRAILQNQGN

[6] = target: FAD-linked sulfhydryl oxidase ALR (Homo sapiens, UniProt P55789); assay: ALR-catalysed DTT oxidation blockers – biochemical, H2O2 detection, luminescence, cherry-pick, dose response (AID 493248)
Sequence of FAD-linked sulfhydryl oxidase ALR (P55789 whole entry): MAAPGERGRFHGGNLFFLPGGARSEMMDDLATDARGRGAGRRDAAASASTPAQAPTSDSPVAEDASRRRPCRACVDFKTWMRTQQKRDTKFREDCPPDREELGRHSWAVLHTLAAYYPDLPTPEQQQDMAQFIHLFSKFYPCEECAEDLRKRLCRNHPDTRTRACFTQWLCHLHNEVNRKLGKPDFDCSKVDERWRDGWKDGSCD

[7] = target: Histone-lysine N-methyltransferase NSD2 (Homo sapiens, UniProt O96028); assay type: biochemical
Sequence of Histone-lysine N-methyltransferase NSD2 (O96028 whole entry): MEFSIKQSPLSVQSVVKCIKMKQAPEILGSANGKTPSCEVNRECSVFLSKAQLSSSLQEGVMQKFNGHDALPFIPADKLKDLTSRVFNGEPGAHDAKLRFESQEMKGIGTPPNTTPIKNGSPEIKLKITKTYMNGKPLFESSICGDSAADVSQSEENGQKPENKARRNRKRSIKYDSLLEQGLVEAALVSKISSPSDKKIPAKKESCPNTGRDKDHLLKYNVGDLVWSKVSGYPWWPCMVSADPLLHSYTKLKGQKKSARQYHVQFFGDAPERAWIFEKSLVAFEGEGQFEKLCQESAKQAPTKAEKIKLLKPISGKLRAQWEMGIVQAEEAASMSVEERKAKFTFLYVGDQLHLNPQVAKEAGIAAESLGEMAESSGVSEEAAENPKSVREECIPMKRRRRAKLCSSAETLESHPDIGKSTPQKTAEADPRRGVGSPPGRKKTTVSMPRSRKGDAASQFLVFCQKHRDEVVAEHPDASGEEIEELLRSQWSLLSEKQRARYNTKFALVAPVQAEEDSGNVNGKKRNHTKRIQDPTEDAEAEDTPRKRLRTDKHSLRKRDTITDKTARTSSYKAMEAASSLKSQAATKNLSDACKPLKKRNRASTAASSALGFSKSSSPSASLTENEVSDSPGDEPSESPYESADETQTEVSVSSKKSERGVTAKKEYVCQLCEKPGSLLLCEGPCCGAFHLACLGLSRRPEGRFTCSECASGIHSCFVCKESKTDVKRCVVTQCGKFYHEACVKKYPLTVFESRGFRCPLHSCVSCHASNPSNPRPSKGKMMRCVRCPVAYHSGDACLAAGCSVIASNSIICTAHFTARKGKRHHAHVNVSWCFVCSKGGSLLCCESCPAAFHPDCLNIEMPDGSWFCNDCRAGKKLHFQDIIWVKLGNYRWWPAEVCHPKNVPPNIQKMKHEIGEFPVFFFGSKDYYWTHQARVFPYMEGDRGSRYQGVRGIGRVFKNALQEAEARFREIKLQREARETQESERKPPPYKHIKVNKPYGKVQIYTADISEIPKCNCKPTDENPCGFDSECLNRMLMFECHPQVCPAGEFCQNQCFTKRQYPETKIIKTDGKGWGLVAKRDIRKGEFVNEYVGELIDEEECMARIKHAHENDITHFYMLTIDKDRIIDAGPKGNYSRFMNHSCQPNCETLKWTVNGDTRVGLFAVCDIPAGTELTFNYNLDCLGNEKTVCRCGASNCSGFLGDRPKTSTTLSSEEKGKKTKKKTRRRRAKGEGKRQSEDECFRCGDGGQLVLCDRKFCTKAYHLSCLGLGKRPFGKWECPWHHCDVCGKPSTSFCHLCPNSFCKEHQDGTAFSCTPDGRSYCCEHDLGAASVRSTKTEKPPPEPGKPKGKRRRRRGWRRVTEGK

[8] = target: T1, DNA repair protein RAD52 homolog (Homo sapiens, UniProt P43351); assay type: functional, biochemical
T1 sequence (P43351 whole entry): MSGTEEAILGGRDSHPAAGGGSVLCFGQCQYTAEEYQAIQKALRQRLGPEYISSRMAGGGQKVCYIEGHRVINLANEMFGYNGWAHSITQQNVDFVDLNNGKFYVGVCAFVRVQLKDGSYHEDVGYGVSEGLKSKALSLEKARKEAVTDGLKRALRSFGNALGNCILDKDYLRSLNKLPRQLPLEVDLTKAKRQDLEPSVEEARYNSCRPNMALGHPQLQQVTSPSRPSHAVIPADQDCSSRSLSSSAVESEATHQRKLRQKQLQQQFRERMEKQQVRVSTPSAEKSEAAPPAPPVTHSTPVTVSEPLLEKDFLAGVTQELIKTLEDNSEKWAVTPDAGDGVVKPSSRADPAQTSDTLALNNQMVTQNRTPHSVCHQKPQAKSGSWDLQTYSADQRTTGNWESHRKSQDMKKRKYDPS

[9] = blockers of bursicon-stimulated LGR2 cAMP reporter – cell-based, HEK293, CRE-luciferase reporter, cherry pick, set 2, dose response (AID 743343); assay type: functional;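 further: transfected cells were stimulated with diluted bursicon conditioned medium after compound addition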
[10] = blockade of melanocortin 4 receptor signaling – cell-based, plate reader, cherry pick, counter-screen for LGR2 antagonist project, dose response (AID 743444); assay type: functional;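 further: transfected HEK 293 cells stimulated with alpha-MSH peptide; potency of inhibitors of the alpha-MSH evoked signal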
[11] = target: Peroxisome proliferator-activated receptor gamma/Nuclear receptor coactivator 3 (Homo sapiens, UniProt P37231); assay: (§1) TR-FRET dose response biochemical High Throughput Screening assay for agonists of the steroid receptor coactivator 3 (SRC-3) recruitment by the peroxisome proliferator-activated receptor gamma (PPAR gamma): non-selective agonists. [Related pubchem assays: 1301 (Confirmation screen.), 1048 (Primary screen.)]; assay type: functional
[12] = target: Peroxisome proliferator-activated receptor gamma/Nuclear receptor coactivator 1 (Homo sapiens, UniProt P37231); assay: as §1, with “1 (SRC-1)” for “3 (SRC-3)”, “assays (depositor defined):AID1300, AID1808, AID504735, AID631]” for “assays: 1301 (Confirmation screen.), 1048 (Primary screen.)]”; assay type: protein assay
[13] = target: Peroxisome proliferator-activated receptor gamma/Nuclear receptor coactivator 2 (Homo sapiens, UniProt P37231); assay: TR-FRET dose response biochemical High Throughput Screening assay for agonists of the steroid receptor coactivator 2 (SRC-2) recruitment by the peroxisome proliferator-activated receptor gamma (PPAR gamma): non-selective agonists. [Related pubchem assays: 1297, 1032 ]; assay type: functional
Sequence of Peroxisome proliferator-activated receptor gamma/Nuclear receptor coactivator 2 (P37231 whole entry, the tested form may be a part): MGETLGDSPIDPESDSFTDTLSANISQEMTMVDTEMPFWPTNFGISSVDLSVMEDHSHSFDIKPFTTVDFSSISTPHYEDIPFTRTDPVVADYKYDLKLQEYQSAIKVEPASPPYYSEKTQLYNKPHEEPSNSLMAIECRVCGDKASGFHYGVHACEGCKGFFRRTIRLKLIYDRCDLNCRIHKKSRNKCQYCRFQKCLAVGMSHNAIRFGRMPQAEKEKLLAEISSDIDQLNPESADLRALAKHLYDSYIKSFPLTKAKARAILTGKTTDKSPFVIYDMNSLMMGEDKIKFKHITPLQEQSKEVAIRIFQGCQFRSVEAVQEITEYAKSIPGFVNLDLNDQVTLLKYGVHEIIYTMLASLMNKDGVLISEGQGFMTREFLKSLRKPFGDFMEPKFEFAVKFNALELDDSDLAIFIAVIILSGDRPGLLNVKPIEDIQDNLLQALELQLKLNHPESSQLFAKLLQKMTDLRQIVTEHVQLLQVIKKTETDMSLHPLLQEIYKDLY
Sequence of Peroxisome proliferator-activated receptor gamma/Nuclear receptor coactivator 2 (Q15596 whole entry, further chain, the tested form may be a part): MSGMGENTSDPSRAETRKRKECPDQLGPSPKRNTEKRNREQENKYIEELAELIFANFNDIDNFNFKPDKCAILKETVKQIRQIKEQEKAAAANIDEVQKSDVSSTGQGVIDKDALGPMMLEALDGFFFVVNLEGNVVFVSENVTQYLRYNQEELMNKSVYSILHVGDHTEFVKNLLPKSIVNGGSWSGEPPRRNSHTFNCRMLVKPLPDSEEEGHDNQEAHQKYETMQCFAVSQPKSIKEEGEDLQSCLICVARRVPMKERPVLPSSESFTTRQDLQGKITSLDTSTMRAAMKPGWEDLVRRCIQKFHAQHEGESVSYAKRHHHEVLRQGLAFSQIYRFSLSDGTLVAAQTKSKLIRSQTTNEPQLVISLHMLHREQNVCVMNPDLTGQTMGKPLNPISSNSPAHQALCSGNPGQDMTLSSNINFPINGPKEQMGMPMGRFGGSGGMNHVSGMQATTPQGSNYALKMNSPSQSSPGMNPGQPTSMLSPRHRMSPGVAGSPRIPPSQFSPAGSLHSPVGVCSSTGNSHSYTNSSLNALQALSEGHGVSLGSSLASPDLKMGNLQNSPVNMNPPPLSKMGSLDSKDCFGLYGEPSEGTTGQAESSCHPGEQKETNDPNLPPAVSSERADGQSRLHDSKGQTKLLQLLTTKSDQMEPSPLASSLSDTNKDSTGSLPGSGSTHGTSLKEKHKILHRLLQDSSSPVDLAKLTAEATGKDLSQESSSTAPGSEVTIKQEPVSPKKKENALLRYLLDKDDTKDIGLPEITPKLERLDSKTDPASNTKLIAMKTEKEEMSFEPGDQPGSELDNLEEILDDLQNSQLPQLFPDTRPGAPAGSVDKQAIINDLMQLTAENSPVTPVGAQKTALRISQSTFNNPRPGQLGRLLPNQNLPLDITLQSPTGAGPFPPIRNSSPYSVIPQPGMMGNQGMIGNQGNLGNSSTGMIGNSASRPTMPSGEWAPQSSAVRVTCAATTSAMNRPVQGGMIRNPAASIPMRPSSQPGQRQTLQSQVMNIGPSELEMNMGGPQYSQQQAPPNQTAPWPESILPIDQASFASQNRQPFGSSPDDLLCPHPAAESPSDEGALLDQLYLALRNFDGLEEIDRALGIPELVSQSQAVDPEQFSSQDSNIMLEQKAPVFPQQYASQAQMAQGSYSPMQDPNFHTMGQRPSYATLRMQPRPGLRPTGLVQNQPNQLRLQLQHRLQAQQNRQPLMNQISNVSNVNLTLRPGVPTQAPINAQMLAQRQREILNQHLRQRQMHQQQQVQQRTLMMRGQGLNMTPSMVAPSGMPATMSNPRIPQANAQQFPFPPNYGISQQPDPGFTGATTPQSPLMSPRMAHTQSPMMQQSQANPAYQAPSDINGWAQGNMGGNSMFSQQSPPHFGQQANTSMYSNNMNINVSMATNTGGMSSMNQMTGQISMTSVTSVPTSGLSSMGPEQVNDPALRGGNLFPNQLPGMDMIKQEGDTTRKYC

[14] = blockers of HIV-1 envelope-mediated cell-cell fusion – cherry-pick, dose response (AID 652057); assay type: functional, cell-based
[15] = viability loss in CEM21 cells – cell-based, CellTiter-Glo luminescence, cherry-picked, cytotoxicity control for viral fusion inhibitor project, dose response (AID 652042); assay type: functional;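 further: potency for signal decrease meaning cytotoxicity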
Large T antigen = Large T antigen (Simian virus 40, UniProt P03070); assay type: functional, Betapolyomavirus macacae;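 further: Confirmatory-stage PubChem screen for compounds that inhibit SV40 T antigen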
[16] = target: T2, Heat shock factor protein 1 (Mus musculus, UniProt P38532); assay: decrease of HSF1-responsive luciferase luminescence – cell-based, NIH3T3, dose retest, confirmation (AID 2382); assay type: functional;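 further: NIH3T3 fibroblasts with HSF1-driven luciferase reporter stressed by proteasome inhibitor MG132; luminescence from HSF1-driven luciferase expression after 8 hours of MG132 stress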
T2 sequence (P38532 whole entry): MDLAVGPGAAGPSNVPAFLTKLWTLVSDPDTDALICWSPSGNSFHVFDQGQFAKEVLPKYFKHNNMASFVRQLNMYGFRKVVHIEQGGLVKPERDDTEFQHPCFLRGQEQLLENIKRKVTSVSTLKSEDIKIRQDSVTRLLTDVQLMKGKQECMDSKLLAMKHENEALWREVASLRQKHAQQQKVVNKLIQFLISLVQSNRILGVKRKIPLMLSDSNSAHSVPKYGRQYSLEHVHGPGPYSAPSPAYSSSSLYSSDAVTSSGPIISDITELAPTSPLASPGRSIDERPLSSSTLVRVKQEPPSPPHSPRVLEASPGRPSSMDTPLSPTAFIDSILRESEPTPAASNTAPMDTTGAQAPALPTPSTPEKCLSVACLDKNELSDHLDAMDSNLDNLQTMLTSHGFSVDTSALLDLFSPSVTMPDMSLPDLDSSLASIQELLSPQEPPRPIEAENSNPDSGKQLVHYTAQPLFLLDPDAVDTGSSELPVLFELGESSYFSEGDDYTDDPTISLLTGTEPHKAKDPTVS

[17] = nonselective StAR promoter luciferase inhibitors – cell-based, luminescence, luciferase reporter, counter-screen for LRH-1 inverse agonist project, dose response (AID 651969); assay type: functional
Steroidogenic factor 1 = Steroidogenic factor 1 (Homo sapiens, UniProt Q13285); assay: Counterscreen for inverse agonists of the liver receptor homolog-1 (LRH-1; NR5A2): Luminescence-based cell-based high throughput dose response assay to identify inverse agonists of the Steroidogenic Factor 1 Nuclear Receptor (SF1; NR5A1).; assay type: functional
Sequence of Steroidogenic factor 1 (Q13285 whole entry): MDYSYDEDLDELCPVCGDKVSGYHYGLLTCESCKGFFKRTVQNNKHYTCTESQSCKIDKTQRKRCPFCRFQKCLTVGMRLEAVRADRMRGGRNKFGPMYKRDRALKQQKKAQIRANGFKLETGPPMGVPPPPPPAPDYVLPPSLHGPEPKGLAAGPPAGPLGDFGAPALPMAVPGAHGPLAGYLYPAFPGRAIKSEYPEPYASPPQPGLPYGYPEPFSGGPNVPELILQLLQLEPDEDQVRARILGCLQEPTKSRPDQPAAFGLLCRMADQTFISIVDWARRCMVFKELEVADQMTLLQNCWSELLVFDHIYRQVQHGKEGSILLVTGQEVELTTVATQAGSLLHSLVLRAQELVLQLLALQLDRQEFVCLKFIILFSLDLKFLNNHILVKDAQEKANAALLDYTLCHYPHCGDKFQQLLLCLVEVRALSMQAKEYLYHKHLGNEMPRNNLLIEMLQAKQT

[18] = target: Nuclear receptor subfamily 5 group A member 2 (Homo sapiens, UniProt O00482); assay type: functional, cell-based;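 further: HEK293T cells transfected with LRH-1 and a StAR promoter luciferase reporter; potency for inhibitors that lower LRH-1 driven reporter light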
[19] = alpha-synuclein stem-loop luciferase translation blockers – H4 neuroglioma cells, luminescence, confirmation (AID 1988); assay type: functional, cell-based
[20] = target: T3, Nuclear receptor subfamily 0 group B member 1 (Homo sapiens, UniProt P51843); assay type: functional, cell-based;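 further: HEK293T cells transfected with SF-1 and DAX-1 plus StAR promoter luciferase reporter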
T3 sequence (P51843 whole entry): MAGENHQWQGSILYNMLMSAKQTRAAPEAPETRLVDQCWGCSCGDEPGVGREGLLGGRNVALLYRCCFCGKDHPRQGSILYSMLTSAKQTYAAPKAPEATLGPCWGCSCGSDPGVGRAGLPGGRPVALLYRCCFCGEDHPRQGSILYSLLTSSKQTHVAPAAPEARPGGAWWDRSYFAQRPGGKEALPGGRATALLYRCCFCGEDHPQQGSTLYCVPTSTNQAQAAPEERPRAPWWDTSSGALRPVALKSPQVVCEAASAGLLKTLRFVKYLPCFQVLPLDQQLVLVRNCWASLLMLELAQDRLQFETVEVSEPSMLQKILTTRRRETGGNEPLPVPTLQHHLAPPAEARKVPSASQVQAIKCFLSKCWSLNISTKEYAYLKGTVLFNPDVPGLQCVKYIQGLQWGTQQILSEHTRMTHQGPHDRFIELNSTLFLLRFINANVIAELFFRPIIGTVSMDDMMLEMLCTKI

[21] = luciferase reporter signal suppression in cells – H4 neuroglioma cells, luminescence, dose response (AID 1990); assay type: functional, cell-based
[22] = Luminescence Cell-Based Dose Response HTS to Identify Inhibitors of 5'UTR Stem-Loop Driven Prion Protein mRNA Translation in H4 Neuroglioblastoma Cells. [Related pubchem assays: 1827 (Project Summary), 1813 (Primary HTS)]; assay type: functional
[23] = viability of uninfected HEp-2 cells – cell-based, HTS, cytotoxicity control for RSV inhibitor project, dose response (AID 2410); assay type: functional; conditions: human respiratory syncytial virus
cells [24] = assay type: functional, cell-based
Vero = assay: cells; assay type: functional, cell-based; conditions: Chlorocebus sabaeus
cells [25] = assay: cells
[26] = target: T4, Low molecular weight phosphotyrosine protein phosphatase (Homo sapiens, UniProt P24666); assay type: functional; conditions: read-out: IC50_Mean
T4 sequence (P24666 whole entry): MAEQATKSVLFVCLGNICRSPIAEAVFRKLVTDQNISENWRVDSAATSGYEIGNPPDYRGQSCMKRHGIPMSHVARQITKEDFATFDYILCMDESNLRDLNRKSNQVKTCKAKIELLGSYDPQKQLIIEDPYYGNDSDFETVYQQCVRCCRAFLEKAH

[27] = target: T4, Low molecular weight phosphotyrosine protein phosphatase; assay type: functional; conditions: read-out: IC50_Mean; remark: listed apart in the source
[28] = target: T5, Carboxy-terminal domain RNA polymerase II polypeptide A small phosphatase 1 (Homo sapiens, UniProt Q9GZU7); assay: CTDSP1 inhibitors, concentration-response, biochemical, absorbance readout, ultra-high-throughput screen actives (AID 540297); assay type: functional
T5 sequence (Q9GZU7 whole entry): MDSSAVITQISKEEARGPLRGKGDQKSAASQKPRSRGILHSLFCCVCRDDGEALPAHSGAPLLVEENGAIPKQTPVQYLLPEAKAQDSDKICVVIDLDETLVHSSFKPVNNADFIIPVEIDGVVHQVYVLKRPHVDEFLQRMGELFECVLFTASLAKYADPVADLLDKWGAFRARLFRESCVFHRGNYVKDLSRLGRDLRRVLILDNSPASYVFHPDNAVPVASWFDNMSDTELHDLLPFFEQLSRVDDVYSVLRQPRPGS

Sequence of DNA dC->dU-editing enzyme APOBEC-3G (Q9HC16 whole entry): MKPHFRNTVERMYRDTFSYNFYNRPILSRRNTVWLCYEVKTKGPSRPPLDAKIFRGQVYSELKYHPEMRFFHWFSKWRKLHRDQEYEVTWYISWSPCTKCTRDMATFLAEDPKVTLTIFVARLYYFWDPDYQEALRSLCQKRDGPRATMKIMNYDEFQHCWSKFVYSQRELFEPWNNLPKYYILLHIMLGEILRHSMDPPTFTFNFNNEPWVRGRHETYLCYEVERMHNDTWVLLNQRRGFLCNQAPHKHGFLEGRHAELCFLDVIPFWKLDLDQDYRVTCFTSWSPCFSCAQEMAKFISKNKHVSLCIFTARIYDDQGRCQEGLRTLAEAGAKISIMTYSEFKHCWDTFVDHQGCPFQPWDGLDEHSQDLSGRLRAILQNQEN

In the case of CC1(C)CC(N2CCCCC2)=CC(=[N+]2CCCCC2)C1, the IC50 [1] is reported as 4.57 µM (active), the EC50 [2] is reported as 21.5 µM (active) and the IC50 (Galanin receptor type 3) is reported as 3.67 µM (active). For the same compound, the EC50 (cells [3]) was > 29.9 µM (inactive), the EC50 [4] was 369 nM (active) and the IC50 [5] was 2.2 µM (active).
With CCN1CCN(c2ccc(N)cc2)CC1 the AC50 [6] was 4.5 µM (active), the AC50 [7] was > 20 µM (inactive) and the AC50 [8] was 1.47 µM (active).
In the case of Cc1ccccc1C(=O)Nc1nnc(-c2ccco2)s1, the AC50 [9] is reported as 4.84 µM (active), the AC50 [10] is reported as 8.18 µM (active) and the EC50 [11] is reported as > 79.4 µM (not active). For the same compound, the EC50 [12] was > 79.4 µM (inactive) and the EC50 [13] was > 26.5 µM (not active).
In the case of COCCCNC(=O)c1sc2ncnc(N3CCc4ccccc4C3)c2c1C, the AC50 [14] is reported as 3.98 µM (active) and the AC50 [15] is reported as 6.66 µM (active).
In the case of CCN1CCN(c2ccc(N)cc2C)CC1, the AC50 [6] is reported as 1.73 µM (active), the AC50 [7] is reported as > 20 µM (inactive) and the IC50 (Large T antigen) is reported as 6.6 µM (active). For the same compound, the AC50 [8] was 0.278 µM (active).
For Cc1c(Cl)cccc1NC(=O)CS(=O)(=O)c1ccccc1, the EC50 [16] was > 195 µM (not active), the IC50 [17] was 35.8 µM (inactive) and the IC50 (Steroidogenic factor 1) was 9.39 µM (active). The IC50 [18] was 3.98 µM (active).
For Nc1cnn(C2OC(CO)C(O)C2O)c(=O)n1 (configuration not stated), the EC50 [19] was 14.7 µM (active), the IC50 [20] was > 22.5 µM (inactive) and the EC50 [21] was 14.3 µM (active). For the same compound, the EC50 [22] was > 120 µM (not active), the CC50 [23] was 5.98 µM (active) and the IC50 (cells [24]) was > 67.5 µM (inactive). For the same compound, the IC50 (Vero) was 11.8 µM (active) and the IC50 (cells [25]) was 1.91 µM (active).
With Cc1cc(C(=O)NCCc2ccc(Cl)cc2)c(C)o1 the IC50 [20] was > 67.5 µM (inactive) and the IC50 (cells [24]) was > 67.5 µM (inactive).
For CCc1ccc(NC(=O)C[S+]([O-])CC(=O)Nc2ccc(N3CCOCC3)cc2)cc1 (configuration not stated), the IC50 [26] was 16.8 µM (active), the IC50 [27] was 17.4 µM (active) and the IC50 [28] was 5.78 µM (active).

From ChEMBL document CHEMBL1201862, “PubChem BioAssay data set” (2004)
